{"source": "patent US7462733B2", "about": "“Preparation and use of α-keto phosphonates” (University of Southern California, priority 2001, dated 2008)", "experiment": "pH dependence of ketone-hydrate equilibrium (31P NMR, absorbance 420 nm)", "format": "physicochemical", "excerpt": "The ketone 13a and hydrate forms 13b are simultaneously detectable by ^31P, and also via the visible absorbance (420 nm) of the ketone chromophore (yellow). At low pH, the hydrate form 13b predominates, the phosphorus NMR peak shifting from −2 to 15 ppm. The reaction is reversible, the ketone reforming as the pH is increased. The pH at which 50% of the ketone is transferred to its hydrate form (‘pK’) is 2.2 (rt, 10^−7M in D2O). This unequivocally coincides with the protonation of the phosphonate function. Upon addition of MgCl2, the apparent ‘pK’ of the equilibrium shifts by nearly 2 pH units towards left to reach 4.2 (FIG. 4).\nWe, report here synthesis and characterization of the first example of a new class of nucleotide analog, in which the α,β-phosphoric anhydride oxygen of the 5′-diphosphate moiety is replaced by a reactive carbonyl group: the carbonylbisphosphonate analog of 3′-azido-3′desoxythymidine 5′-diphosphate, 13. The structures of 13 and its diazomethylenebisphosphonate precursor 12 were confirmed by ^1H, ^13C and ^31P NMR, and high-resolution mass spectrometry. The ketone and hydrate forms of 13 are simultaneously detectable by ^31P, and also via the visible absorbance (420 nm) of the ketone chromophore. At low pH, the hydrate form predominates, the phosphorus NMR peak shifting from −2 to 15 ppm. The reaction is reversible, the ketone reforming as the pH is increased. Addition of Mg^2+ shifts the ‘pK’ of the equilibrium by nearly 2 pH units. (See FIG. 4).", "data": [{"smiles": "Cc1cn([C@H]2C[C@H](N=[N+]=[N-])[C@@H](COP(=O)(O)C(=O)P(=O)(O)O)O2)c(=O)[nH]c1=O", "note": "[Compound 13a, 3′-Azido-3′-Deoxythymidine 5′-Carbonylbisphosphonate]", "values": [{"measurement": "shift of the 'pK' of the equilibrium on addition of Mg2+", "setting": "addition of MgCl2 / Mg^2+", "result": "~2", "unit": "pH units"}, {"measurement": "pH at which 50% of the ketone is transferred to its hydrate form ('pK')", "setting": "rt, 10^−7M in D2O, no Mg", "result": 2.2}, {"measurement": "apparent 'pK' of the ketone-hydrate equilibrium", "setting": "upon addition of MgCl2", "result": 4.2}]}]}
